Data: ChEMBL document CHEMBL1201862, “PubChem BioAssay data set” (2004)
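Step 1: Grow cells in 96-well plates. Step 2: Expose to compound for 48 hours at 5 concentrations. Step 3: Interpolate endpoints linearly; if unreached, use highest concentration. At the GI50, growth is halved.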 Active and inactive are the calls of the source. No stated cut-off is given here; in the data, active = GI50 up to about 1.1 µM and inactive = higher.

Key:
Assay in all cases: NCI-60 cell line screen, 48 h
CAKI-1 = system: CAKI-1
HOP-92 = system: HOP-92
SK-MEL-28 = system: SK-MEL-28
786-0 = system: 786-0
PC-3 = system: PC-3
NCI-H460 = system: NCI-H460
SW-620 = system: SW-620
K562 = system: K562
HT-29 = system: HT-29
OVCAR-3 = system: OVCAR-3
SF-295 = system: SF-295
UACC-257 = system: UACC-257
EKVX = system: EKVX
LOX IMVI = system: LOX IMVI
NCI-H522 = system: NCI-H522
NCI-H226 = system: NCI-H226
RPMI-8226 = system: RPMI-8226
HL-60 = system: HL-60
HCT-15 = system: HCT-15
MOLT-4 = system: MOLT-4
U-251 = system: U-251
SK-MEL-2 = system: SK-MEL-2
COLO 205 = system: COLO 205
OVCAR-5 = system: OVCAR-5
SK-MEL-5 = system: SK-MEL-5
SF-268 = system: SF-268
UO-31 = system: UO-31
M14 = system: M14
OVCAR-4 = system: OVCAR-4
BT-549 = system: BT-549
HCC 2998 = system: HCC 2998
SN12C = system: SN12C
T47D = system: T47D
A549 = system: A549
MDA-MB-231 = system: MDA-MB-231
MDA-MB-435 = system: MDA-MB-435
KM12 = system: KM12
MDA-N = system: MDA-N
SR = system: SR
SF-539 = system: SF-539
IGROV-1 = system: IGROV-1
MCF7 = system: MCF7
NCI-H23 = system: NCI-H23
TK-10 = system: TK-10
Malme-3M = system: Malme-3M
CCRF-CEM = system: CCRF-CEM
HOP-62 = system: HOP-62
SK-OV-3 = system: SK-OV-3
Hs-578T = system: Hs-578T
SNB-19 = system: SNB-19
DU-145 = system: DU-145
ACHN = system: ACHN
OVCAR-8 = system: OVCAR-8
UACC-62 = system: UACC-62
A498 = system: A498
NCI/ADR-RES = system: NCI/ADR-RES
HCT-116 = system: HCT-116
SNB-75 = system: SNB-75
RXF 393 = system: RXF 393

## COc1cc(C(O)c2ccc3c(c2)OCO3)cc(OC)c1OC (stereo unspecified)
CAKI-1
  GI50: > 100 µM (inactive)
HOP-92
  GI50: > 100 µM (inactive)
SK-MEL-28
  GI50: > 100 µM (inactive)
786-0
  GI50: > 100 µM (inactive)
PC-3
  GI50: > 100 µM (inactive)
NCI-H460
  GI50: > 100 µM (inactive)
SW-620
  GI50: > 100 µM (inactive)
K562
  GI50: > 100 µM (inactive)
HT-29
  GI50: > 100 µM (inactive)
OVCAR-3
  GI50: > 100 µM (inactive)
SF-295
  GI50: > 100 µM (inactive)
UACC-257
  GI50: > 100 µM (inactive)
EKVX
  GI50: > 100 µM (inactive)
LOX IMVI
  GI50: > 100 µM (inactive)
NCI-H522
  GI50: > 100 µM (inactive)
NCI-H226
  GI50: > 100 µM (inactive)
RPMI-8226
  GI50: > 100 µM (inactive)
HL-60
  GI50: > 100 µM (inactive)
HCT-15
  GI50: > 100 µM
MOLT-4
  GI50: > 100 µM (inactive)
U-251
  GI50: > 100 µM (inactive)
SK-MEL-2
  GI50: > 100 µM (inactive)
COLO 205
  GI50: > 100 µM (inactive)
OVCAR-5
  GI50: > 100 µM (inactive)
SK-MEL-5
  GI50: 80.2 µM (inactive)
SF-268
  GI50: > 100 µM (inactive)
UO-31
  GI50: 61.2 µM (inactive)
M14
  GI50: > 100 µM (inactive)
OVCAR-4
  GI50: > 100 µM (inactive)
BT-549
  GI50: > 100 µM (inactive)
HCC 2998
  GI50: > 100 µM (inactive)
SN12C
  GI50: > 100 µM (inactive)
T47D
  GI50: 37.1 µM (inactive)
A549
  GI50: > 100 µM (inactive)
MDA-MB-231
  GI50: > 100 µM (inactive)
MDA-MB-435
  GI50: 70 µM (inactive)
KM12
  GI50: > 100 µM (inactive)
MDA-N
  GI50: > 100 µM (inactive)
SR
  GI50: > 100 µM (inactive)
SF-539
  GI50: > 100 µM (inactive)
IGROV-1
  GI50: > 100 µM (inactive)
MCF7
  GI50: > 100 µM (inactive)
NCI-H23
  GI50: > 100 µM (inactive)
TK-10
  GI50: > 100 µM (inactive)
Malme-3M
  GI50: > 100 µM (inactive)
CCRF-CEM
  GI50: > 100 µM (inactive)
HOP-62
  GI50: > 100 µM (inactive)
SK-OV-3
  GI50: > 100 µM (inactive)
Hs-578T
  GI50: > 100 µM (inactive)
SNB-19
  GI50: > 100 µM (inactive)
DU-145
  GI50: > 100 µM (inactive)
ACHN
  GI50: > 100 µM (inactive)
OVCAR-8
  GI50: > 100 µM (inactive)
UACC-62
  GI50: > 100 µM (inactive)
A498
  GI50: > 100 µM (inactive)
NCI/ADR-RES
  GI50: > 100 µM (inactive)
HCT-116
  GI50: > 100 µM (inactive)
SNB-75
  GI50: 73.5 µM (inactive)

## CCCC1(N)CC(OC)OC(C)C1O (stereo unspecified)
CAKI-1
  GI50: > 100 µM (inactive)
HOP-92
  GI50: > 100 µM (inactive)
SK-MEL-28
  GI50: > 100 µM (inactive)
786-0
  GI50: > 100 µM (inactive)
PC-3
  GI50: > 100 µM (inactive)
NCI-H460
  GI50: > 100 µM (inactive)
SW-620
  GI50: > 100 µM (inactive)
K562
  GI50: > 100 µM (inactive)
HT-29
  GI50: > 100 µM (inactive)
OVCAR-3
  GI50: > 100 µM (inactive)
SF-295
  GI50: > 100 µM (inactive)
UACC-257
  GI50: > 100 µM (inactive)
RXF 393
  GI50: > 100 µM (inactive)
EKVX
  GI50: > 100 µM (inactive)
LOX IMVI
  GI50: > 100 µM (inactive)
NCI-H522
  GI50: > 100 µM (inactive)
NCI-H226
  GI50: > 100 µM (inactive)
RPMI-8226
  GI50: > 100 µM (inactive)
HL-60
  GI50: > 100 µM (inactive)
HCT-15
  GI50: > 100 µM
MOLT-4
  GI50: > 100 µM (inactive)
U-251
  GI50: > 100 µM (inactive)
SK-MEL-2
  GI50: > 100 µM (inactive)
COLO 205
  GI50: > 100 µM (inactive)
OVCAR-5
  GI50: > 100 µM (inactive)
SK-MEL-5
  GI50: > 100 µM (inactive)
SF-268
  GI50: > 100 µM (inactive)
UO-31
  GI50: > 100 µM (inactive)
M14
  GI50: > 100 µM (inactive)
BT-549
  GI50: > 100 µM (inactive)
HCC 2998
  GI50: > 100 µM (inactive)
SN12C
  GI50: > 100 µM (inactive)
T47D
  GI50: > 100 µM (inactive)
A549
  GI50: > 100 µM (inactive)
MDA-MB-231
  GI50: > 100 µM (inactive)
MDA-MB-435
  GI50: > 100 µM (inactive)
KM12
  GI50: > 100 µM (inactive)
MDA-N
  GI50: > 100 µM (inactive)
SR
  GI50: > 100 µM (inactive)
SF-539
  GI50: > 100 µM (inactive)
IGROV-1
  GI50: > 100 µM (inactive)
MCF7
  GI50: > 100 µM (inactive)
NCI-H23
  GI50: > 100 µM (inactive)
TK-10
  GI50: > 100 µM (inactive)
Malme-3M
  GI50: > 100 µM (inactive)
CCRF-CEM
  GI50: > 100 µM (inactive)
HOP-62
  GI50: > 100 µM (inactive)
SK-OV-3
  GI50: > 100 µM (inactive)
Hs-578T
  GI50: > 100 µM (inactive)
SNB-19
  GI50: > 100 µM (inactive)
DU-145
  GI50: > 100 µM (inactive)
ACHN
  GI50: > 100 µM (inactive)
OVCAR-8
  GI50: > 100 µM (inactive)
UACC-62
  GI50: > 100 µM (inactive)
A498
  GI50: > 100 µM (inactive)
NCI/ADR-RES
  GI50: > 100 µM (inactive)
HCT-116
  GI50: > 100 µM (inactive)
SNB-75
  GI50: > 100 µM (inactive)
